“Also recorded” adds a separate entry of the source.

In data set [1] the test system is plasma dopamine/norepinephrine ratio, urinary dopamine. The experiment in a line: Plasma and urinary catecholamines in normal volunteers. Format: in vivo, human. The protocol:
Nepicastat reduces the conversion of dopamine to norepinephrine. Basic tests for nepicastat activity measure the levels of plasma or urinary dopamine or the ratio of dopamine to norepinephrine. Nepicastat treatment can increase plasma or urinary levels of dopamine or increase the dopamine/norepinephrine ratio in plasma or urine.
Shown in FIG. 5, are the levels in urinary dopamine levels in normal volunteers after 24 hour treatment with nepicastat.
Urinary dopamine levels increased after 10 days of dosing with both 40 mg and 200 mg of nepicastat.

In data set [2] the test system is plasma renin activity. Briefly: Plasma renin activity in SHRs. Format: in vivo, spontaneously hypertensive rats. As to conditions: 30 and 100 mg/kg/d p.o. for 5 days. From the text: The potency relationships in the left ventricle and mesenteric artery resulting from these in vivo studies strongly parallel those obtained from in vitro studies using purified DBH (see above). […] It was therefore of interest to assess whether decreasing norepinephrine levels with nepicastat would result in a decrease in plasma renin activity.

Data set [3] is described as follows: Pilot observation studies in rats, acute and repeated oral administration.
Procedure: Similarly, in a separate study, physostigmine (1, 3, 10 or 30 mg/kg p.o.) or vehicle were administered acutely to groups of 8 rats.
In pilot studies of repeated administration, nepicastat (100 mg/kg p.o.) or vehicle was administered twice daily (06:00 and 18:00 h) for 10 days (once on day 11) to groups of 8 rats. The weights of the animals were monitored throughout the study and, on day 5, the animals were observed ‘blind’ by an independent observer in order to assess any overt behavioural/physiological effects following repeated administration. In a separate study, groups of 8 rats received vehicle or physostigmine (0.3, 1, 3 or 10 mg/kg p.o.) using the same dosing schedule. The weights of the animals were monitored throughout the study.
In data set [4] the test system is tissue norepinephrine and dopamine levels. Briefly: Tissue catecholamines in Sprague-Dawley rats after single oral dose. Format: in vivo. The protocol:
In SHRs there were significant changes in the dopamine/norepinephrine ratio in the mesenteric artery at doses of 0.3 mg/kg, in the left ventricle at 3.0 mg/kg, and in the cerebral cortex at 10 mg/kg. […] In a second dose-response study in SHRs, three doses were administered 12 hours apart at either 3.0, 10, 30, or 100 mg/kg, and tissue was harvested six hours after the third dose. Nepicastat caused a significant dose dependent decrease in norepinephrine (10 mg/kg) and increase in dopamine (3.0 mg/kg) and the dopamine/norepinephrine ratio (3.0 mg/kg) in the left ventricle and mesenteric artery. The effects of nepicastat on dopamine and norepinephrine concentrations, and the dopamine/norepinephrine ratio in the cerebral cortex were significant only at 30 and 100 mg/kg.

The nature of data set [5]: Pharmacokinetics and brain levels in rats. Format: in vivo. The protocol: Male rats (Crl: CD BR Vaf+) weighing 180-220 g were fasted overnight before dosing and until 4 hr after dosing. Doses were formulated in water containing 2% 1-hydroxypropyl methylcellulose (50 centipoises viscosity), 1% benzyl alcohol, and 0.6% Tween 80 (all obtained from Sigma Chemical Company). Concentration of drug in the dose solutions was 5, 15, and 50 mg/ml for the 10, 30, and 100 mg/kg doses, respectively, and was verified by liquid chromatography (LC). The 5 mg/ml dose was a clear solution and the higher concentrations were a translucent suspension. Dose volumes were 2.0 ml/kg. At various times after dosing, samples of blood were obtained by cardiac puncture with heparinized syringes, and plasma was prepared by centrifugation. Brains of rats were surgically excised, and all samples were frozen at −20° C. until analysis.
Aliquots of plasma (0.05 or 0.5 ml) were mixed with internal standard (50 μl of methanol containing 5 μg/ml a monofluoro analog of nepicastat, and 5 mg/ml dithiothreitol). […] Concentrations of analytes were determined from a standard curve generated from the analysis of plasma from untreated rats fortified with known concentrations of analyte. Plasma concentration data are expressed as μg (free base) per ml. […]
Following addition of 100 μl of methanol to the aqueous phase (to disperse any emulsion), 100 μl aliquots were assayed by LC as described for plasma. Level in brain are expressed as μg (free base) per g of brain tissue.
Pharmacokinetic parameters were calculated from mean plasma concentrations. Plasma half-life (T1/2) was calculated as 0.693/β, where β is the elimination rate constant determined by linear regression of the log plasma concentration vs. time data within the terminal linear portion of the data. Areas under the plasma concentration vs. time curve (AUC) from zero to the time of the last quantifiable plasma concentrations were calculated by the trapezoidal rule. AUC from zero to infinity (AUCtotal 1 was calculated as: AUCtotal=AUC(0−Clast)+Clast/β where Clast is the last quantifiable plasma concentration.

For the compound `Cl.NCc1c[nH]c(=S)n1[C@H]1CCc2c(F)cc(F)cc2C1` [nepicastat, (S)-5-Aminomethyl-1-(5,7-difluoro-1,2,3,4-tetrahydronaphth-2-yl)-2,3-dihydro-2-thioxo-1H-imidazole hydrochloride], the urinary dopamine levels entry in data set [1] (40 mg and 200 mg, after 10 days of dosing) was “increased”. The “mean supine plasma dopamine/norepinephrine ratio vs placebo” value in data set [1] (200 mg) is listed as “significant increase”. Besides, in data set [2], the plasma renin activity entry is recorded as “did not alter plasma renin activity”. Besides, the “overt effects of repeated administration” value in data set [3] (nepicastat 100 mg/kg p.o. twice daily) was “no overt effects”. The irritability when handled entry in data set [3] (nepicastat 100 mg/kg p.o. twice daily, 11 days) is reported as “more irritable than controls”. In addition, the “mean loss in body weight” value in data set [3] (nepicastat 100 mg/kg p.o. twice daily, after 11 days) worked out at 28 g. Further, in data set [3] (nepicastat 30 or 100 mg/kg p.o. acutely), the overt behavioural/physiological changes result is on record as “did not induce any overt behavioural/physiological changes”. Also, the “dose with significant increase in dopamine/norepinephrine ratio” value in data set [4] (cerebral cortex, only at this dose) is on record as 100 mg/kg; in data set [4] (left ventricle, 6 h after single oral dose), 1.0 mg/kg; in data set [4] (mesenteric artery, 6 h after single oral dose) it was 3.0 mg/kg. Moreover, the “plasma AUCtotal, higher in female than in male rats” value in data set [5] (30 mg/kg oral) is listed as 77%. The “brain vs plasma concentrations” value in data set [5] (male rats, 10 mg/kg oral, from 2 hr onward, hydrochloride, 10 mg/kg) is recorded as “concentrations of nepicastat in brain exceeded those in plasma; also recorded: levels of nepicastat in brain were greater than in plasma”. Further, the “relationship between AUCtotal and dose” value in data set [5] (male rats, 10-100 mg/kg) is reported as “linear”.
